Measurements: ChEMBL document CHEMBL1201862, “PubChem BioAssay data set” (2004)
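Protocol summary: plate cells (96-well), add compound at 5 concentrations, incubate 48 h, interpolate endpoints linearly. The concentration for 50% growth inhibition is given as GI50.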 Activity calls are given as the source filed them. No stated cut-off is given here; in the data, active = GI50 up to about 1.1 µM and inactive = higher.

How the values were obtained:
Assay in all cases: inhibition of tumour cell growth, NCI panel, 48 h
786-0 = test system: 786-0
TK-10 = test system: TK-10
HL-60 = test system: HL-60
ACHN = test system: ACHN
SF-268 = test system: SF-268
HOP-62 = test system: HOP-62
CAKI-1 = test system: CAKI-1
NCI-H226 = test system: NCI-H226
UO-31 = test system: UO-31
HCC 2998 = test system: HCC 2998
Hs-578T = test system: Hs-578T
UACC-62 = test system: UACC-62
PC-3 = test system: PC-3
SNB-19 = test system: SNB-19
SK-MEL-5 = test system: SK-MEL-5
T47D = test system: T47D
SW-620 = test system: SW-620
HOP-92 = test system: HOP-92
NCI-H460 = test system: NCI-H460
A498 = test system: A498
SF-295 = test system: SF-295
MDA-MB-435 = test system: MDA-MB-435
U-251 = test system: U-251
SK-MEL-28 = test system: SK-MEL-28
OVCAR-8 = test system: OVCAR-8
CCRF-CEM = test system: CCRF-CEM
SN12C = test system: SN12C
HT-29 = test system: HT-29
MCF7 = test system: MCF7
SF-539 = test system: SF-539
BT-549 = test system: BT-549
HCT-15 = test system: HCT-15
LOX IMVI = test system: LOX IMVI
KM12 = test system: KM12
RXF 393 = test system: RXF 393
M14 = test system: M14
SK-MEL-2 = test system: SK-MEL-2
DU-145 = test system: DU-145
UACC-257 = test system: UACC-257
NCI-H23 = test system: NCI-H23
Malme-3M = test system: Malme-3M
NCI-H522 = test system: NCI-H522
OVCAR-3 = test system: OVCAR-3
SR = test system: SR
EKVX = test system: EKVX
COLO 205 = test system: COLO 205
IGROV-1 = test system: IGROV-1
SNB-75 = test system: SNB-75
K562 = test system: K562
MOLT-4 = test system: MOLT-4
MDA-MB-231 = test system: MDA-MB-231
OVCAR-4 = test system: OVCAR-4
HCT-116 = test system: HCT-116
SK-OV-3 = test system: SK-OV-3
OVCAR-5 = test system: OVCAR-5
MDA-N = test system: MDA-N
A549 = test system: A549
NCI/ADR-RES = test system: NCI/ADR-RES
RPMI-8226 = test system: RPMI-8226

CC(C)(C)OC(=O)CCCCCNC(=O)CCCCCNC(=O)CCC(CN(CC(=O)OCc1ccccc1)CC(=O)OCc1ccccc1)N(CC(=O)OCc1ccccc1)CC(=O)OCc1ccccc1 (configuration not stated)
GI50 (786-0): > 100 µM (inactive)
GI50 (TK-10): > 100 µM (inactive)
GI50 (HL-60): 61.1 µM (inactive)
GI50 (ACHN): > 100 µM (inactive)
GI50 (SF-268): > 100 µM (inactive)
GI50 (HOP-62): > 100 µM (inactive)
GI50 (CAKI-1): 43.8 µM (inactive)
GI50 (NCI-H226): > 100 µM (inactive)
GI50 (UO-31): 71.1 µM (inactive)
GI50 (HCC 2998): > 100 µM (inactive)
GI50 (Hs-578T): > 100 µM (inactive)
GI50 (UACC-62): > 100 µM (inactive)
GI50 (PC-3): > 100 µM (inactive)
GI50 (SNB-19): > 100 µM (inactive)
GI50 (SK-MEL-5): > 100 µM (inactive)
GI50 (T47D): > 100 µM (inactive)
GI50 (SW-620): > 100 µM (inactive)
GI50 (HOP-92): 32.9 µM (inactive)
GI50 (NCI-H460): 14.6 µM (inactive)
GI50 (A498): > 100 µM (inactive)
GI50 (SF-295): > 100 µM (inactive)
GI50 (MDA-MB-435): > 100 µM (inactive)
GI50 (U-251): > 100 µM (inactive)
GI50 (SK-MEL-28): > 100 µM (inactive)
GI50 (OVCAR-8): > 100 µM (inactive)
GI50 (CCRF-CEM): 31.4 µM (inactive)
GI50 (SN12C): > 100 µM (inactive)
GI50 (HT-29): > 100 µM (inactive)
GI50 (MCF7): > 100 µM (inactive)
GI50 (SF-539): > 100 µM (inactive)
GI50 (BT-549): > 100 µM (inactive)
GI50 (HCT-15): > 100 µM
GI50 (LOX IMVI): > 100 µM (inactive)
GI50 (KM12): > 100 µM (inactive)
GI50 (RXF 393): > 100 µM (inactive)
GI50 (M14): > 100 µM (inactive)
GI50 (SK-MEL-2): > 100 µM (inactive)
GI50 (DU-145): > 100 µM (inactive)
GI50 (UACC-257): > 100 µM (inactive)
GI50 (NCI-H23): 68.1 µM (inactive)
GI50 (Malme-3M): > 100 µM (inactive)
GI50 (NCI-H522): > 100 µM (inactive)
GI50 (OVCAR-3): > 100 µM (inactive)
GI50 (SR): 20.5 µM (inactive)
GI50 (EKVX): > 100 µM (inactive)
GI50 (COLO 205): > 100 µM (inactive)
GI50 (IGROV-1): > 100 µM (inactive)
GI50 (SNB-75): 20.2 µM (inactive)
GI50 (K562): 25.2 µM (inactive)
GI50 (MOLT-4): 20.1 µM (inactive)
GI50 (MDA-MB-231): > 100 µM (inactive)
GI50 (OVCAR-4): > 100 µM (inactive)
GI50 (HCT-116): > 100 µM (inactive)
GI50 (SK-OV-3): > 100 µM (inactive)
GI50 (OVCAR-5): > 100 µM (inactive)
GI50 (MDA-N): > 100 µM (inactive)
GI50 (A549): > 100 µM (inactive)
GI50 (NCI/ADR-RES): > 100 µM (inactive)
GI50 (RPMI-8226): 11.8 µM (inactive)

Cc1cc(N(CCC#N)CCC#N)ccc1C(=N/NC(=O)c1cc(Cl)ccc1O)/N=N/c1cccc([N+](=O)[O-])c1
GI50 (786-0): 29 µM (inactive)
GI50 (TK-10): 27.2 µM (inactive)
GI50 (HL-60): 14.7 µM (inactive)
GI50 (ACHN): 35.5 µM (inactive)
GI50 (SF-268): 18.7 µM (inactive)
GI50 (HOP-62): 24.2 µM (inactive)
GI50 (CAKI-1): 27 µM (inactive)
GI50 (NCI-H226): 25.1 µM (inactive)
GI50 (UO-31): 17.6 µM (inactive)
GI50 (HCC 2998): 28.8 µM (inactive)
GI50 (Hs-578T): 38.9 µM (inactive)
GI50 (UACC-62): 14.1 µM (inactive)
GI50 (PC-3): 22.1 µM (inactive)
GI50 (SNB-19): 26.5 µM (inactive)
GI50 (SK-MEL-5): 18.1 µM (inactive)
GI50 (T47D): 19.4 µM (inactive)
GI50 (SW-620): 39.3 µM (inactive)
GI50 (HOP-92): 38.2 µM (inactive)
GI50 (NCI-H460): 25 µM (inactive)
GI50 (A498): 15.5 µM (inactive)
GI50 (SF-295): 35.9 µM (inactive)
GI50 (MDA-MB-435): 35.4 µM (inactive)
GI50 (U-251): 35.9 µM (inactive)
GI50 (SK-MEL-28): 28.9 µM (inactive)
GI50 (OVCAR-8): 22.6 µM (inactive)
GI50 (CCRF-CEM): 5.68 µM (inactive)
GI50 (SN12C): 28.3 µM (inactive)
GI50 (HT-29): 26.7 µM (inactive)
GI50 (MCF7): 16.7 µM (inactive)
GI50 (SF-539): 44.5 µM (inactive)
GI50 (BT-549): 22.4 µM (inactive)
GI50 (HCT-15): 25.5 µM
GI50 (LOX IMVI): 15.2 µM (inactive)
GI50 (KM12): 23.1 µM (inactive)
GI50 (RXF 393): 22.2 µM (inactive)
GI50 (M14): 30.4 µM (inactive)
GI50 (SK-MEL-2): 21.7 µM (inactive)
GI50 (DU-145): 27.2 µM (inactive)
GI50 (UACC-257): 31.2 µM (inactive)
GI50 (NCI-H23): 22.6 µM (inactive)
GI50 (Malme-3M): 34 µM (inactive)
GI50 (NCI-H522): 17.3 µM (inactive)
GI50 (OVCAR-3): 15.9 µM (inactive)
GI50 (SR): 12.6 µM (inactive)
GI50 (EKVX): 25.1 µM (inactive)
GI50 (COLO 205): 16.7 µM (inactive)
GI50 (IGROV-1): 11.3 µM (inactive)
GI50 (SNB-75): 27.5 µM (inactive)
GI50 (K562): 22 µM (inactive)
GI50 (MOLT-4): 6.03 µM (inactive)
GI50 (MDA-MB-231): 14.5 µM (inactive)
GI50 (OVCAR-4): 20.4 µM (inactive)
GI50 (HCT-116): 22.2 µM (inactive)
GI50 (SK-OV-3): 34 µM (inactive)
GI50 (OVCAR-5): 35 µM (inactive)
GI50 (MDA-N): 37 µM (inactive)
GI50 (A549): 28 µM (inactive)
GI50 (NCI/ADR-RES): 23 µM (inactive)
GI50 (RPMI-8226): 12.4 µM (inactive)

COc1ccc(/N=C(Nc2ccc(OC)cc2)/C(=N/c2ccc(OC)cc2)Nc2ccc(OC)cc2)cc1
GI50 (786-0): > 100 µM (inactive)
GI50 (TK-10): > 100 µM (inactive)
GI50 (HL-60): 14.1 µM (inactive)
GI50 (ACHN): > 100 µM (inactive)
GI50 (SF-268): > 100 µM (inactive)
GI50 (HOP-62): > 100 µM (inactive)
GI50 (CAKI-1): > 100 µM (inactive)
GI50 (NCI-H226): > 100 µM (inactive)
GI50 (UO-31): 5.25 µM (inactive)
GI50 (HCC 2998): > 100 µM (inactive)
GI50 (Hs-578T): 37.1 µM (inactive)
GI50 (UACC-62): > 100 µM (inactive)
GI50 (PC-3): 3.9 µM (inactive)
GI50 (SNB-19): > 100 µM (inactive)
GI50 (SK-MEL-5): > 100 µM (inactive)
GI50 (T47D): > 100 µM (inactive)
GI50 (SW-620): > 100 µM (inactive)
GI50 (HOP-92): > 100 µM (inactive)
GI50 (NCI-H460): > 100 µM (inactive)
GI50 (A498): > 100 µM (inactive)
GI50 (SF-295): > 100 µM (inactive)
GI50 (MDA-MB-435): > 100 µM (inactive)
GI50 (U-251): > 100 µM (inactive)
GI50 (SK-MEL-28): > 100 µM (inactive)
GI50 (OVCAR-8): > 100 µM (inactive)
GI50 (CCRF-CEM): 36 µM (inactive)
GI50 (SN12C): > 100 µM (inactive)
GI50 (HT-29): > 100 µM (inactive)
GI50 (MCF7): > 100 µM (inactive)
GI50 (SF-539): > 100 µM (inactive)
GI50 (BT-549): > 100 µM (inactive)
GI50 (HCT-15): > 100 µM
GI50 (LOX IMVI): > 100 µM (inactive)
GI50 (KM12): 14.7 µM (inactive)
GI50 (RXF 393): > 100 µM (inactive)
GI50 (M14): > 100 µM (inactive)
GI50 (SK-MEL-2): > 100 µM (inactive)
GI50 (DU-145): > 100 µM (inactive)
GI50 (UACC-257): > 100 µM (inactive)
GI50 (NCI-H23): > 100 µM (inactive)
GI50 (Malme-3M): > 100 µM (inactive)
GI50 (NCI-H522): > 100 µM (inactive)
GI50 (OVCAR-3): > 100 µM (inactive)
GI50 (SR): 48.2 µM (inactive)
GI50 (EKVX): > 100 µM (inactive)
GI50 (COLO 205): > 100 µM (inactive)
GI50 (IGROV-1): > 100 µM (inactive)
GI50 (SNB-75): 1.95 µM (inactive)
GI50 (K562): 15 µM (inactive)
GI50 (MOLT-4): 4.25 µM (inactive)
GI50 (MDA-MB-231): > 100 µM (inactive)
GI50 (OVCAR-4): > 100 µM (inactive)
GI50 (HCT-116): > 100 µM (inactive)
GI50 (SK-OV-3): > 100 µM (inactive)
GI50 (OVCAR-5): > 100 µM (inactive)
GI50 (MDA-N): > 100 µM (inactive)
GI50 (A549): 96.2 µM (inactive)
GI50 (NCI/ADR-RES): > 100 µM (inactive)
GI50 (RPMI-8226): 5.66 µM (inactive)
